Legend:
U2OS cells = test: cytotoxicity, CellTiter-Glo Luminescent Cell Viability Assay; details: for cytotoxicity profile (normalized cell viability): 250 nM to 50 µM, 36 h (Figure 7)
[1] = test system: GFP expressing HAd-C5 vector; test: fluorescent plaque forming assay (adenoviral propagation / virus spread); format: cell-based, adenovirus
[2] = test system: MARV VP40 with the late domain motif of Ebola virus (PTAPPEY) VP40 (VP40ELD); format: cell-based, Marburg virus
HAd-C5-wt virus = test: adenoviral early gene expression by real-time PCR; format: cell-based, adenovirus; details: U2OS cells, 5 µM, 4 hours post-infection, vs vehicle
HAd-C5 = test: adenovirus genome nuclear import (nuclear protein VII staining, confocal microscopy); format: cell-based; details: U2OS cells, 5 µM, 2500 pp/cell, 2 hours post-infection, vs DMSO

Clc1ccc(-c2ccc(Cn3ccnc3)c(-c3ccc(Cl)cc3Cl)c2)c(Cl)c1 [CT2-10, 1-((2,2",4,4"-Tetrachloro-[1,1':3',1"-terphenyl]-4'-yl)methyl)-1H-imidazole]
cytotoxicity profile (normalized cell viability) (U2OS cells): cytotoxicity profiles similar to Sulconazole

Clc1ccc(-c2cc(-n3ccnc3)c(-c3ccc(Cl)cc3Cl)o2)c(Cl)c1 [CT2-13, 1-(2,5-bis(2,4-Dichlorophenyl)furan-3-yl)-1H-imidazole]
cytotoxicity profile (normalized cell viability) (U2OS cells): cytotoxicity profiles similar to Sulconazole

Nc1ccn(C[C@@H](CO)OCP(=O)(O)O)c(=O)n1 [Cidofovir]
inhibition of adenoviral propagation (plaque size) ([1]; 10 µM and 20 µM (Example 8, Figure 6)): did not show significant inhibition

Clc1ccc(CO/N=C(\Cn2ccnc2)c2ccc(Cl)cc2Cl)c(Cl)c1 [Oxiconazole]
cytotoxicity profile (normalized cell viability) (U2OS cells): cytotoxicity profiles similar to Sulconazole

Clc1ccc(CSC(Cn2ccnc2)c2ccc(Cl)cc2Cl)cc1 (stereo not shown) [Sulconazole]
plaque size (adenovirus virus propagation) ([1]; 5 µM, HEK293 cells, 0.1 pp/cell HAd-C5-GFP, six days after infection, vs DMSO (Example 3, Figure 1, P<0.0001)): significant reduced plaque size
VP40 VLP release [2]: inhibit
early viral genes expression (E1A, E1B, E4 orf6/7) (HAd-C5-wt virus): significant reduction of early viral genes expression
nuclear accumulation of viral genomes (protein VII) (HAd-C5): significantly reduces the nuclear accumulation of viral genomes
reduction of MARV titers (TCID50) (MARV): 1-2 log
cytotoxicity (U2OS cells; 5 µM, 36 h): not cytotoxic

Source: patent EP3381905A1, “NOVEL ANTIVIRAL COMPOUNDS” (priority 2017, dated 2018)
